The subject of test [1] is T. cruzi intracellular amastigotes. As to the kind of experiment: Intracellular anti-Trypanosoma cruzi image-based assay (amastigotes). Format: cell-based. The conditions noted are these: Trypanosoma cruzi; for Emax: read-out: T. cruzi Emax (maximal % inhibition plateau in dose response curve).
For test [2], the system named is T. b. brucei 427 bloodstream trypanosomes. In words: T. b. brucei resazurin viability assay. Format: cell-based, Trypanosoma brucei brucei. The conditions noted are these: Trypanosoma brucei; for IC50: read-out: IC50 T. brucei brucei trypomastigotes; for inhibition at 20 µM: read-out: percent inhibition at the top screening dose, T. brucei brucei. In general terms: Resazurin is reduced to fluorescent resorufin, in cell work by metabolically active cells.

The test system of test [3] is NF54-pfs16-LUC-GFP stage IV gametocytes. As to the kind of experiment: Plasmodium falciparum late stage gametocyte (LSG) image-based assay. Format: cell-based. The conditions noted are these: Plasmodium falciparum; for inhibition at 20 µM: NF54, read-out: percent inhibition at the top screening dose, P. falciparum NF54 LSG; for IC50: NF54, read-out: IC50 P. falciparum NF54 LSG, reference compound set, 11-point dose response, IA = inactive at 20 μM.

Test [4] relates to Plasmodium falciparum 3D7 asexual blood stage. As to the kind of experiment: microbe, parasite or virus in culture. The conditions noted are these: for IC50: 3D7, read-out: IC50 P. falciparum 3D7 ABS; for inhibition at 20 µM: 3D7, read-out: percent inhibition at the top screening dose, P. falciparum 3D7 ABS.
The test system of test [5] is L. donovani MHOM/IN/80/DD8 intracellular amastigotes. In words: Leishmania donovani intracellular amastigote assay in THP-1 cells. The conditions noted are these: for inhibition at 20 µM / IC50: Leishmania donovani; for inhibition at 20 µM: THP-1. In kind it is cell-based.
The next test has as its system 3T3 host cells. As to the kind of experiment: T. cruzi assay, activity against 3T3 host cells. The conditions noted are these: reference compound set; for IC50: IA = inactive at 16.4 μM. In kind it is cell-based. The procedure:
page 4: […] Puromycin, 71 chloroquine, artesunate, DHA, pyronaridine and pyrimethamine were also tested in 72 IC50 format to act as internal reference compounds. 73 74 Intracellular anti-Trypanosoma cruzi Assay Protocol 75 The host cell cytoplasm, in which the parasite resides, is identified by the fluorescent 76 marker, HCS CellMask Green. Parasite and host cell nuclei are detected with the 77 fluorescent DNA intercalator, Hoechst 33342. The Opera® High Content Screening 78 System is used to take images of wells and a spot detection algorithm is used to 79 identify parasites within the cytoplasm. 80 81 Briefly, 1x 10^3 3T3 cells were added to collagen coated 384-well plates and following 82 24 hrs incubation at 37 °C, a multiplicity of infection (MOI) of 5:1 parasite: host cells 83 were added to the plate using a Multidrop liquid handler. Following additional 24 hrs 84 incubation, extracellular parasites were washed from the plates and RPMI with no […] 86 added to all wells. The final volume of media in the primary screening assay, before 87 addition of compound, was modified slightly to 55 µL. One µL of compounds, provided 88 by Compounds Australia, were diluted by the addition of 25 µL of sterile water. This […] 91 donovani). Five microliters of this dilution was added to assay plates. The final […] The final concentrations of compounds in the […] Following 48 hrs incubation in the presence 97 of compounds, wells were fixed, stained and read on the Opera® High Content 98 Screening System to assess compound activity. 99 The Z′-factor, as a measure of assay reproducibility, was determined from a plate […] The positive control used to calculate activity against […] To 103 assess the sensitivity of the T. cruzi assay, activity of the reference compounds 104 benznidazole, NFX, posaconazole and puromycin were determined. […] 108 resazurin as a measure of parasite viability. 109 T. b. brucei trypanosomes were cultured in vitro in HM1-9 medium supplemented with […] Fifty-five µL of logarithmic phase […] 112 incubated for 24 hrs at 37°C /5% CO2. Compounds were subsequently added to the […] Following […] 116 37°C / 5% CO2 followed by 22 hrs at room temperature. […] The percent

Where [6] appears, read: in-house control stock, not the PBox sample, read-out: IC50 of standard in-house assay control, T. cruzi amastigotes.
Where [7] appears, read: reference compound set, IA = inactive at 16.4 μM, read-out: IC50 T. cruzi intracellular amastigotes.
The mark [8] stands for this setting: reference compound set, IA = inactive at 20 μM.
Setting [9] is: reference compound set, first test, 20 μM, read-out: percent inhibition at the top screening dose, L. donovani n = 1.
Where [10] appears, read: reference compound set, second test, 20 μM, read-out: percent inhibition at the top screening dose, L. donovani n = 2.
Where [11] appears, read: THP-1, read-out: IC50 L. donovani n = 1, reference compound set, first test, IA = inactive at 20 μM.
Where [12] appears, read: THP-1, read-out: IC50 L. donovani n = 2, reference compound set, second test, IA = inactive at 20 μM.

Where two headings read alike, the source gives them in different places.

Consider `CC[C@@H]([C@H](C)O)n1ncn(-c2ccc(N3CCN(c4ccc(OC[C@@H]5CO[C@@](Cn6cncn6)(c6ccc(F)cc6F)C5)cc4)CC3)cc2)c1=O` [Posaconazole, reference compound], for which the IC50 (commonly the concentration that inhibits the measured activity by half) is 0.001 µM in test [1] (setting [6]); 0.172 µM in test [1] (setting [7]); greater than 20 µM in test [2] (setting [8]); 4.1 µM in test [4]; greater than 16.4 µM in the test with 3T3 host cells. In addition, the Emax (as a rule, the greatest response seen or fitted, relative to the assay's reference) in test [1] (reference compound set) turned out to be 73%. Also, the inhibition – broadly, the percentage by which the read-out fell short of the control – at 20 µM in test [3] was 63%; in test [5] (setting [9]) it was 64%; in test [5] (setting [10]) it was 60%.

With `CC(C)/N=c1\cc2n(-c3ccc(Cl)cc3)c3ccccc3nc-2cc1Nc1ccc(Cl)cc1` [Clofazimine, reference compound], the IC50 in test [1] (setting [7]) was greater than 16.4 µM; in test [2] (setting [8]), greater than 20 µM; in test [3] it was greater than 20 µM; in test [5] (setting [11]) it was greater than 20 µM; in test [5] (setting [12]), greater than 20 µM; in the test with 3T3 host cells, greater than 16.4 µM. The inhibition at 20 µM in test [4] was determined as 84%.

As for `NCC[C@H](O)C(=O)N[C@@H]1C[C@H](N)[C@@H](O[C@H]2O[C@H](CN)[C@@H](O)[C@H](O)[C@H]2O)[C@H](O)[C@H]1O[C@H]1O[C@H](CO)[C@@H](O)[C@H](N)[C@H]1O` [Amikacin, reference compound], the IC50 is greater than 16.4 µM in test [1] (setting [7]); greater than 20 µM in test [2] (setting [8]); greater than 20 µM in test [3]; greater than 20 µM in test [4]; greater than 20 µM in test [5] (setting [11]); greater than 20 µM in test [5] (setting [12]). In the test on 3T3 host cells, the IC50 was greater than 16.4 µM.

`COC(=O)Nc1nc2ccc(C(=O)c3ccccc3)cc2[nH]1` [Mebendazole, reference compound]: the IC50 in test [1] (setting [7]) is greater than 16.4 µM; in test [2] (setting [8]), greater than 20 µM; in test [3], greater than 20 µM; in test [4], greater than 20 µM; in test [5] (setting [11]) it was greater than 20 µM; in test [5] (setting [12]), greater than 20 µM. The compound also displayed a 50% inhibitory concentration (IC50) in the test on 3T3 host cells greater than 16.4 µM.

With `CC(=O)NC[C@H]1CN(c2ccc(N3CCOCC3)c(F)c2)C(=O)O1` [Linezolid, reference compound], the IC50 in test [1] (setting [7]) was greater than 16.4 µM; in test [2] (setting [8]), greater than 20 µM; in test [3], greater than 20 µM; in test [4], greater than 20 µM; in test [5] (setting [11]) it was greater than 20 µM; in test [5] (setting [12]) it was greater than 20 µM. The same compound displayed a half-maximal inhibitory concentration (IC50) in the test with 3T3 host cells greater than 16.4 µM.

Take `CCN(CC)C(=O)N1CCN(C)CC1` [Diethylcarbamazine, reference compound]: the IC50 is greater than 16.4 µM in test [1] (setting [7]); greater than 20 µM in test [2] (setting [8]); greater than 20 µM in test [3]; greater than 20 µM in test [4]; greater than 20 µM in test [5] (setting [11]); greater than 20 µM in test [5] (setting [12]). This compound also yielded a half-maximal inhibitory concentration (IC50) in the test on 3T3 host cells greater than 16.4 µM.

As for `CC(=O)Oc1ccccc1C(=O)Nc1ncc([N+](=O)[O-])s1` [Nitazoxanide, reference compound], the half-inhibitory concentration (IC50) in test [1] (setting [7]) was greater than 16.4 µM; in test [3] it was greater than 20 µM; in test [4], greater than 20 µM; in the test on 3T3 host cells, greater than 16.4 µM. Further, the inhibition at 20 µM in test [2] (reference compound set) turned out to be 41%; in test [5] (setting [9]), 44%; in test [5] (setting [10]), 41%.

Consider `Cc1ccc(C(=O)Nc2ccc(S(=O)(=O)O)c3cc(S(=O)(=O)O)cc(S(=O)(=O)O)c23)cc1NC(=O)c1cccc(NC(=O)Nc2cccc(C(=O)Nc3cc(C(=O)Nc4ccc(S(=O)(=O)O)c5cc(S(=O)(=O)O)cc(S(=O)(=O)O)c45)ccc3C)c2)c1` [Suramin, reference compound], for which the half-maximal inhibitory concentration (IC50) is greater than 16.4 µM in test [1] (setting [7]); 0.11 µM in test [2]; greater than 20 µM in test [3]; greater than 20 µM in test [4]; greater than 20 µM in test [5] (setting [11]); greater than 20 µM in test [5] (setting [12]). Further, the 50% inhibitory concentration (IC50) in the test on 3T3 host cells is greater than 16.4 µM.

Take `CC1CS(=O)(=O)CCN1/N=C/c1ccc([N+](=O)[O-])o1` (stereo not drawn) [Nifurtimox, reference compound]: the IC50 is 1.23 µM in test [1] (setting [6]); 1.42 µM in test [1] (setting [7]); 5.38 µM in test [2] (setting [8]); greater than 20 µM in test [4]; greater than 20 µM in test [5] (setting [11]); greater than 20 µM in test [5] (setting [12]). The same compound registered an IC50 in the test with 3T3 host cells greater than 16.4 µM. For the same compound, in test [1] (reference compound set), the Emax came to 100%. For the same compound, the inhibition at 20 µM in test [3] is 39%.

On to `COc1nc2ccc(Br)cc2cc1[C@@H](c1ccccc1)[C@@](O)(CCN(C)C)c1cccc2ccccc12` [Bedaquiline, reference compound], for which the IC50 is greater than 16.4 µM in test [1] (setting [7]), greater than 20 µM in test [5] (setting [11]), greater than 20 µM in test [5] (setting [12]) and greater than 16.4 µM in the test on 3T3 host cells. For the same compound, the results for the inhibition at 20 µM in test [2] (reference compound set), in test [3] and in test [4] were 59%, 75% and 91%, respectively.

Consider `C[C@H]1c2cccc(O)c2C(=O)C2=C(O)[C@]3(O)C(=O)C(C(N)=O)=C(O)[C@@H](N(C)C)[C@@H]3[C@@H](O)[C@@H]21` [Doxycycline, reference compound], for which the IC50 in test [1] (setting [7]) was greater than 16.4 µM; in test [2] (setting [8]), greater than 20 µM; in test [5] (setting [11]), greater than 20 µM; in test [5] (setting [12]), greater than 20 µM; in the test with 3T3 host cells, greater than 16.4 µM. The values for the inhibition at 20 µM in test [3] and in test [4] were 77% and 90%, respectively.

Take `CCCCCCCCCCCCCCCCOP(=O)([O-])OCC[N+](C)(C)C` [Miltefosine, reference compound]: the IC50 in test [1] (setting [7]) was greater than 16.4 µM; in test [2] (setting [8]) it was greater than 20 µM; in test [3], greater than 20 µM; in test [4] it was greater than 20 µM; in test [5] (setting [11]) it was 11.7 µM; in test [5] (setting [12]) it was 2.26 µM. This compound returned a 50% inhibitory concentration (IC50) with 3T3 host cells greater than 16.4 µM.

For the compound `C[C@@H]1[C@H](O)[C@@H](C)/C=C/C=C/C=C/C=C/C=C/C=C/C=C/[C@H](O[C@@H]2O[C@H](C)[C@@H](O)[C@H](N)[C@@H]2O)C[C@@H]2O[C@](O)(C[C@@H](O)C[C@@H](O)[C@H](O)CC[C@@H](O)C[C@@H](O)CC(=O)O[C@H]1C)C[C@H](O)[C@H]2C(=O)O` [Amphotericin B], the IC50 in test [1] (setting [7]) is greater than 16.4 µM; in test [2] (setting [8]) it was greater than 20 µM; in test [3], greater than 20 µM; in test [5] (THP-1, in-house control stock, not the PBox sample, two tests, read-out: IC50 of standard in-house assay control, L. donovani), 0.41 µM; in test [5] (setting [12]) it was greater than 20 µM; in the test with 3T3 host cells, greater than 16.4 µM. Moreover, the inhibition at 20 µM came out at 87% in test [4] and 100% in test [5] (setting [9]). In test [5] (PBox sample, 20 μM), the “activity against L. donovani at 20 μM” value was “not active”.

Turning to `COc1cc(NC(C)CCCN)c2ncccc2c1` (stereo not drawn) [Primaquine, reference compound], the inhibition at 16.4 µM in test [1] (reference compound set, 16.4 μM, read-out: percent inhibition at the top screening dose, T. cruzi intracellular amastigotes) was determined as 94%; in the test with 3T3 host cells (16.4 μM, read-out: percent inhibition at the top screening dose, 3T3 host cells), 73%. Further, the inhibition at 20 µM worked out at 91% in test [2] (reference compound set); 96% in test [3]; 91% in test [4]; 33% in test [5] (setting [9]); 79% in test [5] (setting [10]).

For `CC[C@@H](CO)NCCN[C@@H](CC)CO` [Ethambutol, reference compound], the half-maximal inhibitory concentration (IC50) in test [1] (setting [7]) is greater than 16.4 µM; in test [2] (setting [8]), greater than 20 µM; in test [4], greater than 20 µM; in test [5] (setting [11]), greater than 20 µM; in test [5] (setting [12]) it was greater than 20 µM; in the test with 3T3 host cells, greater than 16.4 µM. Besides, the inhibition at 20 µM in test [3] is 42%.
